In US20220002226A1, “Amorphous Form of Chelating Agents and Process for Preparing them” (Hovione Scientia Limited, priority 2018, published 2022):

Key:
[1] = Solubility test according to European Pharmacopoeia (Ph. Eur. 5.11): increasing amounts of water added to 100 mg of powder; format: physicochemical; conditions: 22° C.; for 100 mg dissolved in stated volume of water (YES/No): 100 mg powder
Experimental: Characters section in monographs. This was used in the tests below.
Solubility was assessed using the European Pharmacopeia method referred to above where increasing amounts of water are added to 100 mg of powder until its complete dissolution (or otherwise).
Characters section in monographs.

[2] = cited from earlier work
[3] = 0.1 ml water, Ph. Eur. class Very soluble
[4] = 1.0 ml water, Ph. Eur. class Freely soluble
[5] = 3.0 ml water, Ph. Eur. class Soluble
[6] = 10.0 ml water, Ph. Eur. class Sparingly soluble
[7] = 20.0 ml water, Ph. Eur. class Slightly soluble
[8] = 30.0 ml water, Ph. Eur. class Very slightly soluble
[9] = 40.0 ml water, Ph. Eur. class Insoluble
[10] = 50.0 ml water, Ph. Eur. class printed Insoluble (Tables 2, 6), Very slightly soluble (Table 4)
[11] = 60.0 ml water, Ph. Eur. class Insoluble
[12] = 70.0 ml water, Ph. Eur. class Insoluble
[13] = 80.0 ml water, Ph. Eur. class Insoluble

| 100 mg dissolved in stated volume of water (YES/No) [1, 3] | 100 mg dissolved in stated volume of water (YES/No) [1, 4] | 100 mg dissolved in stated volume of water (YES/No) [1, 5] | 100 mg dissolved in stated volume of water (YES/No) [1, 6] | 100 mg dissolved in stated volume of water (YES/No) [1, 7] | 100 mg dissolved in stated volume of water (YES/No) [1, 8] | solubility compared with the corresponding crystalline form ([1]; Ph. Eur. solubility test, water) | 100 mg dissolved in stated volume of water (YES/No) [1, 9] | 100 mg dissolved in stated volume of water (YES/No) [1, 10] | 100 mg dissolved in stated volume of water (YES/No) [1, 11] | 100 mg dissolved in stated volume of water (YES/No) [1, 12] | 100 mg dissolved in stated volume of water (YES/No) [1, 13] | SMILES | solubility in water (prior-art statement) [2] |
| --- | --- | --- | --- | --- | --- | --- | --- | --- | --- | --- | --- | --- | --- |
| No | No | No | No | No | YES | higher solubility | – | – | – | – | – | O=C(O)CN(CCN(CC(=O)O)CC(=O)O)CCN(CC(=O)O)CC(=O)O [DTPA Amorphous pharma grade, diethylenetriaminepentaacetic acid] | – |
| No | No | No | No | No | No | – | No | No | No | No | YES | O=C(O)CN(CCN(CC(=O)O)CC(=O)O)CCN(CC(=O)O)CC(=O)O [DTPA Crystalline Industrial grade, diethylenetriaminepentaacetic acid] | – |
| No | No | No | No | No | No | – | No | No | No | No | YES | O=C(O)CN(CCN(CC(=O)O)CC(=O)O)CCN(CC(=O)O)CC(=O)O [DTPA Crystalline pharma grade, diethylenetriaminepentaacetic acid] | – |
| – | – | – | – | – | – | – | – | – | – | – | – | O=C(O)CN(CCN(CC(=O)O)CC(=O)O)CCN(CC(=O)O)CC(=O)O [DTPA, diethylenetriaminepentaacetic acid] | soluble in water only at higher pH (around 8) |
